Measurements reported in PMC9721440, “Investigation of the enantioselectivity of acetylcholinesterase and butyrylcholinesterase upon inhibition by tacrine-iminosugar heterodimers” (Journal of Enzyme Inhibition and Medicinal Chemistry, 2022).
Entries after “also recorded” stand apart in the source; their conditions may differ.

Key:
AChE = conditions: cited from earlier work; for inhibition of AChE: 20 μM inhibitor concentration
[1] = test system: A549, HBL-100, HeLa, SW1573, T-47D and WiDr cells; experiment: Antiproliferative SRB assay, panel of six cancer cell lines; format: cell-based; conditions: Homo sapiens, 48 h exposure, whole panel, read-out: GI50 against panel of six human cancer cell lines
Excerpt: (§1) For the antiproliferative tests, we applied our implementation of the National Cancer Institute (NCI) screening protocol. As a model of human solid tumour cells, we selected the cell lines A549 (non-small cell lung), HBL-100 (breast), HeLa (cervix), SW1573 (non-small cell lung), T-47D (breast), and WiDr (colon). Cell seeding densities, based on the cell line doubling time, were 2500 (A549, HBL-100, HeLa and SW1573) or 5000 (T-47D and WiDr) cells/well. Compounds were initially dissolved in DMSO at 400 times the desired final maximum test concentration. […] Each compound was tested in triplicate at different dilutions ranging from 1 to 100 μM. Drug treatment began on day 1 after sowing. The drug incubation times were 48 h, after which the cells were precipitated with ice-cold TCA (50% w/v) and fixed for 60 min at 4 °C. Then the SRB test was performed. The optical density (OD) of each well was measured at 530 nm using a microplate absorbance reader (PowerWave XS, BioTek Instruments Inc.). Values were corrected for background OD of wells containing medium only[39].
(§2) Antiproliferative activity of our heterodimers was investigated for six cancer cell lines including A549, HBL-100, HeLa, SW1573, T-47D and WiDr.

[2] = molecular target: AChE from Electrophorus electricus (eeAChE) (Electrophorus electricus, UniProt O42275); experiment: biochemical; format: biochemical; conditions: for IC50: [S] = 121 µM, mean ± SD; for Enantioselectivity (eeAChE): IC50(Xa:AChE)/IC50(Xb:AChE); for fold more potent eeAChE inhibitor than 10a: IC50 ratio vs 10a
Sequence of AChE from Electrophorus electricus (eeAChE) (O42275 24-633): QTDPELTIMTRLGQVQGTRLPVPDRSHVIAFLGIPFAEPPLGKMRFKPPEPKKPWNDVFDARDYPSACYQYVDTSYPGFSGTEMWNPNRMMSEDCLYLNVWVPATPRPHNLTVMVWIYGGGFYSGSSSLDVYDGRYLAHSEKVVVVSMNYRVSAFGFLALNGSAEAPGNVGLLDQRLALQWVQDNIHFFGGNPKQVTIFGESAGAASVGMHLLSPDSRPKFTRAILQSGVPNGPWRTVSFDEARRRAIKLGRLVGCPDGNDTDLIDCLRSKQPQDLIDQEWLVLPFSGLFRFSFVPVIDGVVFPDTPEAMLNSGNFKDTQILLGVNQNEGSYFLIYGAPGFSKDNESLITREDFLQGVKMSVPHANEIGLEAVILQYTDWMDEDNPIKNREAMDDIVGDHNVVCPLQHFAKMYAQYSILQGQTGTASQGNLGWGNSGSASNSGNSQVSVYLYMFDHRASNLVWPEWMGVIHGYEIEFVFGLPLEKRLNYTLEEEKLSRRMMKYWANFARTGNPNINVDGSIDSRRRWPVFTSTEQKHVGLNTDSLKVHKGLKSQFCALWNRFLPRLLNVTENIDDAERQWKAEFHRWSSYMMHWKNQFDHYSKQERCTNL
Excerpt: (§3) A Thermo Scintific^TM Varioskan^TM LUX microplate reader and Greiner F-bottom 96-well plates were used. Cornish-Bowden plots (1/V vs. [I] and [S]/V vs. [I]) were used for the visualisation of the mode of inhibition.
(§4) A minor modification of the Ellman assay was used in order to measure the IC50 values.

[3] = molecular target: T1, BuChE from equine serum (eqBuChE) (Equus caballus, UniProt P81908); experiment: biochemical; format: biochemical; conditions: for IC50: [S] = 112 µM, mean ± SD; for Enantioselectivity (eqBuChE): IC50(Xa:BuChE)/IC50(Xb,BuChE)
T1 construct: BuChE from equine serum; from tissue; host or cells: equine serum
T1 sequence (P81908 whole entry): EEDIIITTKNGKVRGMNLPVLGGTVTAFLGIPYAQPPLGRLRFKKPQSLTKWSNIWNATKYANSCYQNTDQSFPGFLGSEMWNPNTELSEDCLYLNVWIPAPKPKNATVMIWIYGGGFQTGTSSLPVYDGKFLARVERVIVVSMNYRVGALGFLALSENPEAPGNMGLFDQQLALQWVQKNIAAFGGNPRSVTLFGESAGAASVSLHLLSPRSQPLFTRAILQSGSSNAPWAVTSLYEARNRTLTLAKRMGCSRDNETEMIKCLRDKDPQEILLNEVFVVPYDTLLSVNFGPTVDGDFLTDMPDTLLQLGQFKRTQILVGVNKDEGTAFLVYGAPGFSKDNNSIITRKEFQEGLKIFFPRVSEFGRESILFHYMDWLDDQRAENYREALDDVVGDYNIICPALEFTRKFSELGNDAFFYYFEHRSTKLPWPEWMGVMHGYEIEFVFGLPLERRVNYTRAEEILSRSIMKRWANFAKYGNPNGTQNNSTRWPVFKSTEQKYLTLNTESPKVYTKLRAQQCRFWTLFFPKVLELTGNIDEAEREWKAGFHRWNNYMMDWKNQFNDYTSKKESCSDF
Excerpt: as §3, §4

HeLa (cervix) cells = experiment: Antiproliferative SRB assay, HeLa; format: cell-based; conditions: Homo sapiens, 48 h exposure
Excerpt: as §1, §2

[4] = test system: A549 (non-small cell lung) cells; experiment: Antiproliferative SRB assay, A549; format: cell-based, human; conditions: 48 h exposure
Excerpt: as §1, §2

T-47D (breast) cells = experiment: Antiproliferative SRB assay, T-47D; format: cell-based; conditions: Homo sapiens, T47D, 48 h exposure
Excerpt: as §1, §2

WiDr (colon) cells = experiment: Antiproliferative SRB assay, WiDr; format: cell-based; conditions: Homo sapiens, 48 h exposure
Excerpt: as §1, §2

HBL-100 (breast) cells = experiment: Antiproliferative SRB assay, HBL-100; format: cell-based; conditions: Homo sapiens, 48 h exposure
Excerpt: as §1, §2

[5] = test system: SW1573 (non-small cell lung) cells; experiment: Antiproliferative SRB assay, SW1573; format: cell-based; conditions: Homo sapiens, 48 h exposure
Excerpt: as §1, §2

In the case of `COc1ccc2c3c1O[C@H]1C[C@@H](O)C=C[C@@]31CCN(C)C2` [(-)-Galantamine (2a), (-)-Galantamine], the “inhibition of AChE” value (AChE) is given as “ca. 94%”.

In the case of `CNC(=O)Oc1ccc2c(c1)[C@]1(C)CCN(C)[C@@H]1N2C` [(-)-physostigmine (3a), (-)-physostigmine], the “fold stronger AChE inhibitor than (+)-physostigmine (3b)” value (AChE; depending on the enzyme source) is given as 25- to 1000 fold.

In the case of `COc1ccc2c3c1O[C@@H]1C[C@H](O)C=C[C@]31CCN(C)C2` [Compound 2b], the “inhibition of AChE” value (AChE) is listed as “ca. 4%”.

In the case of `OC[C@@H]1[C@@H](O)[C@H](O)CN1Cc1cn(CCNc2c3c(nc4ccccc24)CCCC3)nn1` [Compound 9a], the GI50 [1] is reported as > 100000 nM, the IC50 [2] is reported as 420 ± 10 nM and the IC50 [3] is reported as 96 ± 5 nM.

For `OC[C@H]1[C@H](O)[C@@H](O)CN1Cc1cn(CCNc2c3c(nc4ccccc24)CCCC3)nn1` [Compound 9b], the GI50 [1] was > 100000 nM, the “Enantioselectivity (eeAChE)” value [2] was 0.28 and the IC50 [2] was 1480 ± 240 nM. The “Enantioselectivity (eqBuChE)” value [3] was 0.54 and the IC50 [3] was 179 ± 25 nM.

With `OC[C@@H]1[C@@H](O)[C@H](O)CN1Cc1cn(CCCNc2c3c(nc4ccccc24)CCCC3)nn1` [Compound 10a] the GI50 [1] was > 100000 nM, the “fold less potent eeAChE inhibitor than 10b” value ([2]; IC50 ratio vs 10b, less potent) was “ca. 3.5 fold” and the IC50 [2] was 530 ± 30 nM. The IC50 [3] was 184 ± 16 nM.

For `OC[C@H]1[C@H](O)[C@@H](O)CN1Cc1cn(CCCNc2c3c(nc4ccccc24)CCCC3)nn1` [Compound 10b], the GI50 [1] was > 100000 nM, the “Enantioselectivity (eeAChE)” value [2] was 3.5 and the “fold more potent eeAChE inhibitor than 10a” value [2] was “ca. 4 fold”. The IC50 [2] was 150 ± 38 nM, the “Enantioselectivity (eqBuChE)” value [3] was 0.79 and the IC50 [3] was 232 ± 28 nM.

For `OCC1C(O)C(O)CN1Cc1cn(CCCCCCNc2c3c(nc4ccccc24)CCCC3)nn1` (centres unmarked) [Compound 11a], the “fold more potent eeAChE inhibitor than 9a” value ([2]; IC50 ratio vs 9a) was “ca. 43 fold”, the “fold more potent eeAChE inhibitor than 10a” value [2] was 55 fold and the IC50 [2] was 9.7 ± 1 nM. The “fold stronger eqBuChE inhibitor than 9a” value ([3]; IC50 ratio vs 9a) was “roughly 11 fold”, the “fold stronger eqBuChE inhibitor than 10a” value ([3]; IC50 ratio vs 10a) was 20 fold and the IC50 [3] was 9.1 ± 0.3 nM. For the same compound, the GI50 (HeLa (cervix) cells) was 93000 ± 12000 nM, the GI50 [4] was 94000 ± 9600 nM and the GI50 ([4]; Homo sapiens, A549, 48 h) was < 100000 nM. For the same compound, the GI50 (T-47D (breast) cells) was > 100000 nM, the GI50 (WiDr (colon) cells) was > 100000 nM and the GI50 (HBL-100 (breast) cells) was > 100000 nM. The GI50 [5] was > 100000 nM.

With `OC[C@H]1[C@H](O)[C@@H](O)CN1Cc1cn(CCCCCCNc2c3c(nc4ccccc24)CCCC3)nn1` [Compound 11b] the “Mode of inhibition eeAChE” value ([2]; Cornish-Bowden plots) was “mixed; also recorded: (mixed)”, the “Enantioselectivity (eeAChE)” value [2] was 0.91 and the “fold more potent eeAChE inhibitor than 9b” value ([2]; IC50 ratio vs 9b) was “ca. 138 fold”. The “fold more potent eeAChE inhibitor than 10b” value ([2]; IC50 ratio vs 10b) was ~14 fold, the IC50 [2] was 10.7 ± 0.3 nM and the Ki ([2]; mixed inhibition, Cornish-Bowden, read-out: Ki (competitive inhibition constant) eeAChE) was 19 nM. The “Mode of inhibition eqBuChE” value ([3]; Cornish-Bowden plots) was “mixed; also recorded: (mixed)”, the “Enantioselectivity (eqBuChE)” value [3] was 1.1 and the “fold stronger eqBuChE inhibitor than 9b” value ([3]; IC50 ratio vs 9b) was 22 fold. The “fold stronger eqBuChE inhibitor than 10b” value ([3]; IC50 ratio vs 10b) was 29 fold, the IC50 [3] was 8.1 ± 0.1 nM and the Ki ([3]; mixed inhibition, Cornish-Bowden, read-out: Ki (competitive inhibition constant) eqBuChE) was 10 nM. For the same compound, the GI50 (HeLa (cervix) cells) was > 100000 nM, the GI50 [4] was 84000 ± 28000 nM and the GI50 ([4]; Homo sapiens, A549, 48 h) was < 100000 nM. The GI50 (T-47D (breast) cells) was > 100000 nM, the GI50 (WiDr (colon) cells) was > 100000 nM and the GI50 (HBL-100 (breast) cells) was > 100000 nM. It also gave a GI50 [5] of 97000 ± 5400 nM.
